Measurements reported in ChEMBL document CHEMBL4616640, “Discovery of novel pyrrole derivatives as potent agonists for the niacin receptor GPR109A” (Bioorg Med Chem Lett, 2020).

Test: AUC (0 to 7 hrs) in rat at 10 mg/kg, po
Assay type: ADME, organism-based
Parameters: dose 10 mg/kg, time < 7 hr, route oral
Settings: in vivo

CCCCn1cc(NC(=O)CCc2nc(-c3ccc(O)cn3)no2)c(C(=O)O)c1
AUC(0-t) at 7 h: 0.63 µg·h/mL
